Measurements published in patent US20210360924A1, “PLANT OR SEED COATING” (University of Southampton, priority 2017, published 2021).

Molecular target: G. pallida SER-7 (Globodera pallida, UniProt A0A183BS20, DEL280-286/G462A/H333Q/S454N/S6T/Y334H)
Assay: Cut head pharyngeal pumping assay, ser-7 (tm1325) expressing Gpa-ser-7

In the case of NCCc1c[nH]c2ccc(O)cc12 [serotonin, 5-hydroxytryptamine], the EC50 is reported as 3.9 µM.
